# Test results published in US20090017006A1, “USE OF A COMPOUND FOR ENHANCING THE EXPRESSION OF MEMBRANE PROTEINS ON THE CELL SURFACE” (BIODEVELOPS PHARMA ENTWICKLUNG GMBH, priority 2005, published 2009).
# Entries after “also recorded” stand apart in the source; their conditions may differ. Residues, ends and D or L forms follow the SMILES beside them. *: point of attachment. Cbz = O=C(OCc1ccccc1)*
# Experiments:
# Assay type in all cases: cell-based
# CFTR-ΔF508 [1] = test: Immunoblot for GFP-tagged CFTR-ΔF508 expressed in HEK293 cells (endoglycosidase H treated extracts); design: accumulation of CFTR-ΔF508 (intensity of staining compared to control lane 4): unit of the concentration uncertain; settings: for accumulation of CFTR-ΔF508 (intensity of staining compared to control lane 4): treated overnight (16 h)
# Procedure: HEK293 cells (1*10^6 cells) were transfected with plasmids encoding CFTR or CFTR-ΔF508 (GFP-tagged) and/or co-transfected with effector plasmids. After 16 h, the cells were treated with the varying concentrations of compounds. After 24 h, the cells were harvested in phosphate-buffered saline, lysed by a freeze-thaw cycle and homogenized by sonication. The homogenate was resuspended in reducing Laemmli sample buffer (50 mM Tris.Hcl, pH 6.8, 20% glycerol, 0.1% bromophenol blue, 2% SDS and 20 mM dithiothreitol); aliquots (15% of the original culture) were resolved on a denaturing polyacrylamide gel (monomer concentration in the stacking gel and in the running gel 4 and 8% respectively) and electrophoretically transferred to a nitrocellulose membrane. Immunodetection was done with an antiserum directed against GFP as the primary antibody and an anti-rabbit IgG coupled to horseradish peroxidase as the secondary antibody.
# In a first example, Membranes from transfected cells were prepared and immunoblotted for GFP-tagged CFTR or CFTR-ΔF508, respectively (by using an antibody directed against the fluorescent protein).
# The membrane extract was also treated endoglycosidase H. The rationale for this experiment is as follows: membrane proteins are core glycosylated in the endoplasmatic reticulum. Core glycosylation is sensitive to endoglycosidase H. If the protein has reached the Golgi (and then trafficked to the plasma membrane), it acquires additional sugar moieties and becomes resistant to endoglycosidase H. It is evident from lane 3 in FIG. 1 that endoglycosidase H treatment reduces the apparent size of CFTR; thus, the bulk of the protein is still in the ER. The following lanes examine the expression of CFTR-ΔF508 (all extracts were treated with endoglycosidase H): lane 4 is the control, that is cells expressing CFTR-ΔF508; in lanes 5, 6, 7 and 8 cells expressing CFTR-ΔF508 were treated overnight (i.e. for 16 h) with 100 nM MG132, […], […] and 100 nM bortezomib, respectively.
# HEK293 cells = test: FACS propidium iodide staining: cell cycle distribution / apoptosis of transfected HEK293 cells
# Procedure: (§1) Cultured HEK293 cells were transfected with plasmids encoding CFTR or CFTR-ΔF508 (GFP-tagged) and/or co-transfected with plasmids encoding USP4 (or an appropriate control plasmid) by using the CaPO4-precipitation method. Sixteen hours after transfection the cells were treated with varying concentrations of compounds. At a specific time point (here 24 h) the cells are trypsinized, fixed in ethanol, permeabilized and stained with propidium iodide (PI). The stained cells are subjected to FACS analysis
# Transiently transfected HE 293 cells were fixed in ethanol 24 h after transfection as mentioned above and then stained with propidium iodide to label the DNA: the rationale was to examine the distribution of cells in the cell cycle (=to see if the expression of CFTR or of CFTR-ΔF508 was toxic or if the compounds employed killed the cells/drove them into apoptosis).
# One can plot the cell counts against the propidium iodide fluorescence of the transfected cells (such as shown in, for example, FIG. 2b): This gives a peak of cells (denoted by M1) that have a 2n content of DNA (G1-cells), a shoulder of cells that have a DNA content of larger than 2n (denoted by M3 and representing cells that are in S-phase) and a second peak of cells that have a DNA content of 4n (denoted by M2 and representing cells in G2 and M-phase).
# CFTR-ΔF508 [2] = test: FACS monitoring of expression of GFP-tagged CFTR-ΔF508 in HEK293 cells; settings: for CFTR-ΔF508-associated fluorescence (expression level) versus control: 24 h
# Procedure: as §1
# Because CFTR is tagged with a fluorescent protein, expression in individual cells can be monitored by fluorescence activated cell sorting (FACS). By contrast with fluorescence microscopy (where individual cells are picked), FACS allows to survey the entire cell population. In addition, FACS has the advantage that it allows for reasonable sample throughput; finally, automation and scale-up is readily possible.
# The original data set is shown on the right hand side of the figures, respectively (see e.g. FIG. 2c): the x-axis is the propidium iodide fluorescence (note that the scale is linear). The y-axis is the GFP-fluorescence (=fluorescence associated with CFTR; note that the scale is logarithmic) and each dot corresponds to a cell. The quadrangle delineates the cells that express CFTR.
# [3] = cells cotransfected with plasmid driving expression of USP4
molecule,measurement,setting,value
"CC(C)C[C@H](NC(=O)[C@H](Cc1ccccc1)NC(=O)c1cnccn1)B(O)O [Bortezomib, N-(2-pyrazine)carbonyl-L-phenylalanine-L-leucine-boronic acid]","relative effectiveness in accumulation of CFTR-ΔF508, 100 nM versus 1 μM","CFTR-ΔF508 [1]; 100 nM compared with 1 μM, 16 h",more effective than 1 μM bortezomib
same,accumulation of CFTR-ΔF508 (intensity of staining compared to control lane 4),CFTR-ΔF508 [1]; 100 nM,led to the accumulation of CFTR-ΔF508
same,accumulation of CFTR-ΔF508 (intensity of staining compared to control lane 4),CFTR-ΔF508 [1]; 1 (unit uncertain),led to the accumulation of CFTR-ΔF508
same,cell cycle distribution of CFTR-ΔF508 expressing cells versus control,"HEK293 cells; 10 nM, HEK293 cells",essentially the same as the one shown in control cells
same,number of cells with low propidium iodide fluorescence (apoptotic cells),"HEK293 cells; 100 nM, HEK293 cells",number of cells with low propidium iodide fluorescence increases
same,peak of the G1-cells (M1) in cell cycle distribution,"HEK293 cells; 100 nM, HEK293 cells",greatly reduced
same,number of cells with low propidium iodide fluorescence (apoptotic cells),"HEK293 cells; 1 μM, HEK293 cells",number of cells with low propidium iodide fluorescence increases
same,peak of the G1-cells (M1) in cell cycle distribution,"HEK293 cells; 1 μM, HEK293 cells",greatly reduced
same,CFTR-ΔF508-associated fluorescence (expression level) versus control,"CFTR-ΔF508 [2]; 10 nM, HEK293 cells",expression of CFTR is increased; also recorded: substantially increases the level of CFTR-ΔF508
same,CFTR-ΔF508-associated fluorescence (expression level) versus control,"CFTR-ΔF508 [2]; 100 nM, HEK293 cells",expression of CFTR is increased
CC(C)C[C@@H](C=O)NC(=O)[C@H](CC(C)C)NC(=O)[C@H](CC(C)C)NC(=O)OCc1ccccc1 [MG132] (Cbz-Leu-Leu-Leu-aldehyde),apoptotic effect,"HEK293 cells; 1 μg, HEK293 cells",pronounced apoptotic effect
same,CFTR-ΔF508-expression,"CFTR-ΔF508 [2]; 1 μg, HEK293 cells",enhances CFTR-ΔF508-expression
O=C1N[C@@H]2[C@@H](O)[C@@H](O)[C@H](O)[C@@H](CO)N2C1=O [kifunensine],accumulation of CFTR-ΔF508 (intensity of staining compared to control lane 4),CFTR-ΔF508 [1]; 20 (unit uncertain),led to the accumulation of CFTR-ΔF508
"USP-4: deubiquitinating enzyme (ubiquitin specific protease), co-expressed in cells from a transfected plasmid","toxicity / apoptosis (cell cycle distribution, sub-2n fraction)",HEK293 cells; [3],not toxic and does not cause apoptosis
same,CFTR-ΔF508-associated fluorescence versus control,CFTR-ΔF508 [2]; [3],CFTR-ΔF508-associated fluorescence increases
